Reference: patent US20240181006A1, “POLYPEPTIDES BINDING ADAMTS5, MMP13 AND AGGRECAN” (Merck Patent GmbH, priority 2017, published 2024)

Tests used:
[1] = system: bovine cartilage explants; experiment: bovine cartilage explant assay, IL-1α, GAG release (polypeptide 949); format: cell-based; details: 5 days with IL-1α, FIG. 3
Procedure: FIG. 3: Efficacy of polypeptide 949 (“NB949”) in bovine cartilage explant assay.
In short, the polypeptide was incubated with bovine cartilage explants that were cultured 5 days with IL-1α to induce an OA-like cartilage degradation process. Within 5 days, degradation of primarily Aggrecan ensues, whereas Collagen degradation only occurs after about two weeks, i.e., after termination of the experiments described here. At the end of the experiment, the GAG (mainly derived from Aggrecan) which was released from the degrading cartilage into the culture supernatant was quantified.

human cartilage explants = experiment: human cartilage explant assay, IL-1β + OSM, GAG release; format: cell-based; details: reference set at 100%, FIG. 4
Procedure: FIG. 4: Efficacy of polypeptide 949 in a human cartilage explant assay.
Polypeptide 949 (M-A-C-C: 62C02-2F03-114F08-114F08) was tested in human cartilage explant assays for inhibition of cartilage degradation. Briefly, the polypeptide was incubated with human cartilage explants that were cultured 7 days with IL-1β+Oncostatin M (OSM). Within 7 days, degradation of primarily Aggrecan ensues, whereas Collagen degradation only occurs after about two weeks, i.e., after termination of the experiments described here. At the end of the experiment, the GAG (mainly derived from Aggrecan) which was released from the degrading cartilage into the culture supernatant was quantified. The IC50 was calculated on the basis of the negative control level (=GAG release from explants without additional stimulus) and the IL-1 β+OSM level, as measure for maximal GAG loss. GAG is shown as GAG release (in μg) per mg cartilage of each individual explant.

CC(C)(Cc1ccc(F)cc1)NC(=O)[C@H](CCC(=O)O)NC(=O)c1ccc(-c2ccccc2)cc1 [AGG-523]
inhibition of bovine cartilage degradation (IL-1α stimulated GAG release) [1]: fully inhibits | inhibition of stimulated GAG release in human cartilage explant assay (human cartilage explants): fully inhibits
